Measured values reported in the kinase profiling compilation of Christmann-Franck et al. (2016).

How the values were obtained:
Experiment in all cases: radiometric filter-binding kinase assay
RPS6KA5 KD1 KD2 (human) = RPS6KA5 KD1 KD2 (human) (UniProt O75582)
HIPK1 (human) = HIPK1 (human) (UniProt Q86Z02)
MINK1 (human) = MINK1 (human) (UniProt Q8N4C8)
EEF2K (human) = EEF2K (human) (UniProt O00418)
BTK (human) = BTK (human) (UniProt Q06187)
[1] = test system: RPS6KB1 (human), P23443 [T412E]
PAK4 (human) = PAK4 (human) (UniProt O96013)
CSNK2A1 (human) = CSNK2A1 (human) (UniProt P68400)
SRPK1 (human) = SRPK1 (human) (UniProt Q96SB4)
[2] = target: STK11 CAB39 STRADA (human) (UniProt Q9Y376+Q7RTN6+Q15831)
PRKCZ (human) = PRKCZ (human) (UniProt Q05513)
INSR (human) = INSR (human) (UniProt P06213)
[3] = test system: AKT1 (human), P31749 [S473D]
MAPK15 (human) = MAPK15 (human) (UniProt Q8TD08)
CDK2 CCNA2 (human) = CDK2 CCNA2 (human) (UniProt P20248+P24941)
MKNK1 (human) = MKNK1 (human) (UniProt Q9BUB5)
AURKA (human) = AURKA (human) (UniProt O14965)
Sequence of AURKA (human) (O14965 whole entry, looked up): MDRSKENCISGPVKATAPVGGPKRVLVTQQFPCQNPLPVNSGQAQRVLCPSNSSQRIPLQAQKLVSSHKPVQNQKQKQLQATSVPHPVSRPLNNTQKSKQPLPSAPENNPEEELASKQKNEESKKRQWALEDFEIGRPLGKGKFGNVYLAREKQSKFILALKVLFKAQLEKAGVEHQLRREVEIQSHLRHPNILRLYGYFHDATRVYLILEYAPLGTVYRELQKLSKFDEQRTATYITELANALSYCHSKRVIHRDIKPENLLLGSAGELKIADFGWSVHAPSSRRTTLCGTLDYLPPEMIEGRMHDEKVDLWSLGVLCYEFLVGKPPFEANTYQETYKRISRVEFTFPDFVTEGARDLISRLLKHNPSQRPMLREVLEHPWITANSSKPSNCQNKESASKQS

[4] = test system: PAK2 (human), Q13177 [T402E]
Sequence of PAK2 (human), Q13177 [T402E] (Q13177 whole entry T402E, looked up): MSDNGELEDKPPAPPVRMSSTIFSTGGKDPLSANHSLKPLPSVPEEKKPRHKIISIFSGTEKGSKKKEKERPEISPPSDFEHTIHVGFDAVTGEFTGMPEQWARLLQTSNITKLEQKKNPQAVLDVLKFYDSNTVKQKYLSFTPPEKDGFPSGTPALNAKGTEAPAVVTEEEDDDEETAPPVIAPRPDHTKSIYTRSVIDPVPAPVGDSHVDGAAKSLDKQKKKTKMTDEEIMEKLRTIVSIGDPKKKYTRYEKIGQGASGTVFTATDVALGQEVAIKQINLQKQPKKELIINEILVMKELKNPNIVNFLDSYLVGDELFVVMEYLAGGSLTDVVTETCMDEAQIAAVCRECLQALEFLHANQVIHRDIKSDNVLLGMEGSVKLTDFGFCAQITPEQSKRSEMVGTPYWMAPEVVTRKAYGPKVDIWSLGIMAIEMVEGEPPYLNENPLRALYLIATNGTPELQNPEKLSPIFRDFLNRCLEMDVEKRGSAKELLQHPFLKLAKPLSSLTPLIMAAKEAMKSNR

[5] = test system: SGK1 (human), O00141 [S422D]
ERBB4 (human) = ERBB4 (human) (UniProt Q15303)
Sequence of ERBB4 (human) (Q15303 whole entry, looked up): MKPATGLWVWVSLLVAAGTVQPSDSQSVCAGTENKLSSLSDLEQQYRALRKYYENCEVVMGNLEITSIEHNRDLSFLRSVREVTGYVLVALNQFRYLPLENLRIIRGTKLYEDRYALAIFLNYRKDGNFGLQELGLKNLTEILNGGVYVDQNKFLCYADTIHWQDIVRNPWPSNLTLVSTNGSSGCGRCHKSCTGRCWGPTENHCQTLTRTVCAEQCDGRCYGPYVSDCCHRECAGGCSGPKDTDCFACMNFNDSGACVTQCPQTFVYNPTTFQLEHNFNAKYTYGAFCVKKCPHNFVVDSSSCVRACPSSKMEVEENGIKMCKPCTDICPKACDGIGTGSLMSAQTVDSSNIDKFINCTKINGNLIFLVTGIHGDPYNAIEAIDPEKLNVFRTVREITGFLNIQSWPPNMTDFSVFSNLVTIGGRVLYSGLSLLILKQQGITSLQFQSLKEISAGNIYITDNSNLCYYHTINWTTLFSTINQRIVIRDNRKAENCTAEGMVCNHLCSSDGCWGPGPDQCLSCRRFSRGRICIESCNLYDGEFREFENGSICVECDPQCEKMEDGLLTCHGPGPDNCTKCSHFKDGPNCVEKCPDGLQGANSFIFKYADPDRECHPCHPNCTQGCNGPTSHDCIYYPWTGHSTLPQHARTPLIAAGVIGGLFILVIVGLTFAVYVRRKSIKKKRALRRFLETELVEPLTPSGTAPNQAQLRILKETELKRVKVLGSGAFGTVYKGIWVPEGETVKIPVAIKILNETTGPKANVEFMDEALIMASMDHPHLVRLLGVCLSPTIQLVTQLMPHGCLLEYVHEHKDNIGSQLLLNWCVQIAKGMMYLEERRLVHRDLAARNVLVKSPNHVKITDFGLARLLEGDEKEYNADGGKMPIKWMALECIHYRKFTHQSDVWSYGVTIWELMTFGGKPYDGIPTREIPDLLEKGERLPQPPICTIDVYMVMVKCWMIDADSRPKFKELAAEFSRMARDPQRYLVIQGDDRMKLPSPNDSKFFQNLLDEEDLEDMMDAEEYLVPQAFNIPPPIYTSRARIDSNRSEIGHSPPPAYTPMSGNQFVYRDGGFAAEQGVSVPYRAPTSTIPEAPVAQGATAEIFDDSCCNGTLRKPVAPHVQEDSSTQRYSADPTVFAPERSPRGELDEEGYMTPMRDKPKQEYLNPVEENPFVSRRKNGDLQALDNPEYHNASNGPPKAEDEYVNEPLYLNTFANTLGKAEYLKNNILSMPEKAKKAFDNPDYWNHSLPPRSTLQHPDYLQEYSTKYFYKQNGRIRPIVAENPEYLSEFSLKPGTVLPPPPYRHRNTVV

GSK3B (human) = GSK3B (human) (UniProt P49841)
MELK (human) = MELK (human) (UniProt Q14680)
YES1 (human) = YES1 (human) (UniProt P07947)
Sequence of YES1 (human) (P07947 whole entry, looked up): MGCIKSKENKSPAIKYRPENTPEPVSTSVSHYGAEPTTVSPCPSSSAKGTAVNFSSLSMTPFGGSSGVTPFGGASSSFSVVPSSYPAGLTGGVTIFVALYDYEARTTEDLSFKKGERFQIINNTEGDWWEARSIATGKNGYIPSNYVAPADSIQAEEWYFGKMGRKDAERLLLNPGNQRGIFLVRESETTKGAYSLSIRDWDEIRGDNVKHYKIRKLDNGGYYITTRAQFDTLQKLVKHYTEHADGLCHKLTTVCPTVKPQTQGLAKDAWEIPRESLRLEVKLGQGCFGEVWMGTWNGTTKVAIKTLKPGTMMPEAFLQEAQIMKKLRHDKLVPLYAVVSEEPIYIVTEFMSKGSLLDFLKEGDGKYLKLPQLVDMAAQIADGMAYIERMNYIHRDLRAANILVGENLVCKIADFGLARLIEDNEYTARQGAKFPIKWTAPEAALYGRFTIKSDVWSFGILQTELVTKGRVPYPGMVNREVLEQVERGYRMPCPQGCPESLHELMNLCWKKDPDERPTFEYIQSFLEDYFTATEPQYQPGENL

NUAK1 (human) = NUAK1 (human) (UniProt O60285)
MARK2 (human) = MARK2 (human) (UniProt Q7KZI7)
PKN2 (human) = PKN2 (human) (UniProt Q16513)
MAPK8 (human) = MAPK8 (human) (UniProt P45983)
EPHB3 (human) = EPHB3 (human) (UniProt P54753)
SRC (human) = SRC (human) (UniProt P12931)

Sequence of BTK (human) (Q06187 whole entry, looked up): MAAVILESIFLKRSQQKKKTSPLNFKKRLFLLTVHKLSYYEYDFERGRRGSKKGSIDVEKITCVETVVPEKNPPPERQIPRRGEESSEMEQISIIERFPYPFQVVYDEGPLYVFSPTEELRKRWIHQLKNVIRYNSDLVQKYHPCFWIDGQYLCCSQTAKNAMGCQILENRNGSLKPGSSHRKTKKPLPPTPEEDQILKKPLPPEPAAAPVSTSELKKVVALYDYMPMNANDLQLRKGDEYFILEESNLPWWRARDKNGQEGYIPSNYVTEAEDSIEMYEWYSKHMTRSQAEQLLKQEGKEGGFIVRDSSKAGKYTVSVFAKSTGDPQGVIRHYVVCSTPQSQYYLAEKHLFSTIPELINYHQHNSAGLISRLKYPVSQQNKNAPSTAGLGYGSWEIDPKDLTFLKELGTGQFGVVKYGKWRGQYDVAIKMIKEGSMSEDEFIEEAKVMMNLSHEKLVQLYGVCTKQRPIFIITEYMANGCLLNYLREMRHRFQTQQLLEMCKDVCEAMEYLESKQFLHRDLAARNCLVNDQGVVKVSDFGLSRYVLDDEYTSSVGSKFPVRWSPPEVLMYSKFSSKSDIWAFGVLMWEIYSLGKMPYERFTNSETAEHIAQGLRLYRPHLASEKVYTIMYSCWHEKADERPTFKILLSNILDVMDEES
Sequence of EEF2K (human) (O00418 whole entry, looked up): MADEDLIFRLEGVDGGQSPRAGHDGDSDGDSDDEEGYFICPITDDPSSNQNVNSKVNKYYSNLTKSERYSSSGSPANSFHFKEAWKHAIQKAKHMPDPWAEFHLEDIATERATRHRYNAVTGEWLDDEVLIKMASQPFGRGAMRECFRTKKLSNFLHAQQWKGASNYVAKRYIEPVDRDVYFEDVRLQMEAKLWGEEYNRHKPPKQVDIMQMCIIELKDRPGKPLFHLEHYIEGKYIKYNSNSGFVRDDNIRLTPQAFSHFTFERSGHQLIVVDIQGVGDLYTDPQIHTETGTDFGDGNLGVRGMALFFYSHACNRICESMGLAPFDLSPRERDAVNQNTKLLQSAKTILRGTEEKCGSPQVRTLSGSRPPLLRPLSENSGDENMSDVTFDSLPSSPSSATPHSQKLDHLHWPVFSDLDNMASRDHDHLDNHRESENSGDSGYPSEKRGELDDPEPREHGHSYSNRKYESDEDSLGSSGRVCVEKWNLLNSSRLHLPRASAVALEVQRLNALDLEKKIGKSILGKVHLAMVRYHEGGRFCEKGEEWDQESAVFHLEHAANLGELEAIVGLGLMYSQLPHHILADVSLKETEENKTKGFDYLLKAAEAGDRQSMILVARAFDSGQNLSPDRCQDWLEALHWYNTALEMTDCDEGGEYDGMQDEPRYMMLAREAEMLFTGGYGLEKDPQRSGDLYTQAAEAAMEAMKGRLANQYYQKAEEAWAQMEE
Sequence of RPS6KB1 (human), P23443 [T412E] (P23443 whole entry T412E, looked up): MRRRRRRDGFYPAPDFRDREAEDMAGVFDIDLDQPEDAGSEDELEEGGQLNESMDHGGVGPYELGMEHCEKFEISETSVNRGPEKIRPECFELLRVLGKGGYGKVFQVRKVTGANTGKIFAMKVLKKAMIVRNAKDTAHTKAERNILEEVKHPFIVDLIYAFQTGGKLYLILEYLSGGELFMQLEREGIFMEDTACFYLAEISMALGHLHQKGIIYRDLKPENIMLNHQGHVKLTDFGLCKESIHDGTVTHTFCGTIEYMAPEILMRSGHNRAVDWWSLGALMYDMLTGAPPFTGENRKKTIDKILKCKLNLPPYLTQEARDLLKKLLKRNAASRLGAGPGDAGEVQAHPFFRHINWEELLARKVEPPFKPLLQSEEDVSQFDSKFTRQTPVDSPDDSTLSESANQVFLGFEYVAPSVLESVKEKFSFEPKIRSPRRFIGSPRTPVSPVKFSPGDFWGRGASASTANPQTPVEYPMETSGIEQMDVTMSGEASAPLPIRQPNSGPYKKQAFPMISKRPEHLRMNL

- residual activity (RPS6KA5 KD1 KD2 (human); compound 0.01 µM): 102%
- residual activity (RPS6KA5 KD1 KD2 (human); compound 0.1 µM): 100%
- residual activity (RPS6KA5 KD1 KD2 (human); compound 1.0 µM): 94%
- residual activity (HIPK1 (human); compound 0.01 µM): 102%
- residual activity (HIPK1 (human); compound 0.1 µM): 105%
- residual activity (HIPK1 (human); compound 1.0 µM): 102%
- residual activity (MINK1 (human); compound 0.01 µM): 121%
- residual activity (MINK1 (human); compound 0.1 µM): 110%
- residual activity (MINK1 (human); compound 1.0 µM): 105%
- residual activity (EEF2K (human); compound 0.01 µM): 108%
- residual activity (EEF2K (human); compound 0.1 µM): 100%
- residual activity (EEF2K (human); compound 1.0 µM): 97%
- residual activity (BTK (human); compound 0.01 µM): 126%
- residual activity (BTK (human); compound 0.1 µM): 121%
- residual activity (BTK (human); compound 1.0 µM): 110%
- residual activity ([1]; compound 0.01 µM): 111%
- residual activity ([1]; compound 0.1 µM): 106%
- residual activity ([1]; compound 1.0 µM): 100%
- residual activity (PAK4 (human); compound 0.01 µM): 108%
- residual activity (PAK4 (human); compound 0.1 µM): 117%
- residual activity (PAK4 (human); compound 1.0 µM): 106%
- residual activity (CSNK2A1 (human); compound 0.01 µM): 103%
- residual activity (CSNK2A1 (human); compound 0.1 µM): 104%
- residual activity (CSNK2A1 (human); compound 1.0 µM): 94%
- residual activity (SRPK1 (human); compound 0.01 µM): 106%
- residual activity (SRPK1 (human); compound 0.1 µM): 120%
- residual activity (SRPK1 (human); compound 1.0 µM): 106%
- residual activity ([2]; compound 0.01 µM): 104%
- residual activity ([2]; compound 0.1 µM): 124%
- residual activity ([2]; compound 1.0 µM): 100%
- residual activity (PRKCZ (human); compound 0.01 µM): 113%
- residual activity (PRKCZ (human); compound 0.1 µM): 105%
- residual activity (PRKCZ (human); compound 1.0 µM): 72%
- residual activity (INSR (human); compound 0.01 µM): 101%
- residual activity (INSR (human); compound 0.1 µM): 103%
- residual activity (INSR (human); compound 1.0 µM): 102%
- residual activity ([3]; compound 0.01 µM): 179%
- residual activity ([3]; compound 0.1 µM): 117%
- residual activity ([3]; compound 1.0 µM): 97%
- residual activity (CDK2 CCNA2 (human); compound 0.01 µM): 104%
- residual activity (CDK2 CCNA2 (human); compound 0.1 µM): 101%
- residual activity (CDK2 CCNA2 (human); compound 1.0 µM): 105%
- residual activity (MKNK1 (human); compound 0.01 µM): 106%
- residual activity (MKNK1 (human); compound 0.1 µM): 108%
- residual activity (MKNK1 (human); compound 1.0 µM): 111%
- residual activity (AURKA (human); compound 0.01 µM): 112%
- residual activity (AURKA (human); compound 0.1 µM): 115%
- residual activity (AURKA (human); compound 1.0 µM): 92%
- residual activity ([4]; compound 0.01 µM): 105%
- residual activity ([4]; compound 0.1 µM): 119%
- residual activity ([4]; compound 1.0 µM): 105%
- residual activity ([5]; compound 0.01 µM): 96%
- residual activity ([5]; compound 0.1 µM): 96%
- residual activity ([5]; compound 1.0 µM): 37%
- residual activity (ERBB4 (human); compound 0.01 µM): 106%
- residual activity (ERBB4 (human); compound 0.1 µM): 107%
- residual activity (ERBB4 (human); compound 1.0 µM): 106%
- residual activity (GSK3B (human); compound 0.01 µM): 108%
- residual activity (GSK3B (human); compound 0.1 µM): 111%
- residual activity (GSK3B (human); compound 1.0 µM): 109%
- residual activity (MELK (human); compound 0.01 µM): 115%
- residual activity (MELK (human); compound 0.1 µM): 77%
- residual activity (MELK (human); compound 1.0 µM): 23%
- residual activity (YES1 (human); compound 0.01 µM): 122%
- residual activity (YES1 (human); compound 0.1 µM): 119%
- residual activity (YES1 (human); compound 1.0 µM): 101%
- residual activity (NUAK1 (human); compound 0.01 µM): 120%
- residual activity (NUAK1 (human); compound 0.1 µM): 105%
- residual activity (NUAK1 (human); compound 1.0 µM): 47%
- residual activity (MARK2 (human); compound 0.01 µM): 113%
- residual activity (MARK2 (human); compound 0.1 µM): 114%
- residual activity (MARK2 (human); compound 1.0 µM): 109%
- residual activity (PKN2 (human); compound 0.01 µM): 90%
- residual activity (PKN2 (human); compound 0.1 µM): 102%
- residual activity (PKN2 (human); compound 1.0 µM): 82%
- residual activity (MAPK8 (human); compound 0.01 µM): 92%
- residual activity (MAPK8 (human); compound 0.1 µM): 108%
- residual activity (MAPK8 (human); compound 1.0 µM): 99%
- residual activity (EPHB3 (human); compound 0.01 µM): 106%
- residual activity (EPHB3 (human); compound 0.1 µM): 107%
- residual activity (EPHB3 (human); compound 1.0 µM): 91%
- residual activity (SRC (human); compound 0.01 µM): 101%
- residual activity (SRC (human); compound 0.1 µM): 105%
- residual activity (SRC (human); compound 1.0 µM): 97%
SMILES: CNc1nc(-c2ccc3c(N)n[nH]c3c2)cc(N2C[C@@H](C(=O)NC3CCCCC3)CC[C@H]2C)n1
- residual activity (MAPK15 (human); compound 0.01 µM): 106%
- residual activity (MAPK15 (human); compound 0.1 µM): 117%
- residual activity (MAPK15 (human); compound 1.0 µM): 107%
